Measured values published in patent publication US20250011330A1, “Imidazo[1,2- a]pyrazine and Imidazo[1,2- a]pyridine Based Tyrosyl-DNA Phosphodiesterase I (TDP1) Inhibitors” (The USA, As Represented by the Secretary, Department of …, priority 2021, published 2025).
Read-outs that look alike come from different tables or passages of the source. Each block holds one compound with its values, some of them ahead of it.

Assays:
TOP1 = TOP1 (Homo sapiens (Human), UniProt P11387); test: Degradation of TOP1 in cells (western blotting); type: cell-based; settings: list in description
TDP2 [1] = target: T1, TDP2 (Homo sapiens (Human), UniProt O95551); test: gel-based TDP2 fluorescence assay in vitro; type: biochemical
[2] = tested on: human colon cancer cell line HCT116; test: Synergistic effect with camptothecin (CPT) based on cell viability; settings: list in description
Experimental: The synergistic effects of the TDP1 inhibitors with CPT were tested in human colon cancer cell line HCT116 based on cell viability (Table 3, FIGS. 2-5). Cells were first seeded in a 384-well black-clear plate until 30% confluency and then incubated with a serial dilution of CPT at the range of 0-100 nM in the present or the absence of TDP1 inhibitors for 72 h at 37° C. Viable cell numbers were counted from the brightfield images taken by Biotek Cytation 5 (FIGS. 2-3). Fractional affect (Fa) and combination index (Ci) were analyzed with CompuSyn software. Synergistic scores of each TDP1 inhibitors were calculated and collected based on the data analysis from SynergyFinder (FIG. 4). […]

TDP1 [3] = target: T2, TDP1 (Homo sapiens (Human), UniProt Q9NUW8); test: gel-based TDP1 fluorescence assay of unpurified oxime libraries at 100 μM; type: biochemical; settings: 100 μM in DMSO, oximes without purification
Experimental: The oximes were evaluated by gel-based TDP1 fluorescence assay in a concentration of 100 μM in DMSO. The fluorescence of DMSO blank vial was set as 0 and the fluorescence for the reference without TDP1 was set as 100%. Preparation: A mixture of aminooxy-containing 105 or 106 (10 μL, 30 mM in DMSO), aldehydes M1-T12 (10 μL, 30 mM in DMSO) and acetic acid (10 μL, 150 mM in DMSO) were agitated at room temperature overnight. Oximes 5-M1-T12 or 6-M1-T12 (30 uL, 10 mM in DMSO) were afforded.
Two set of oximes 105-X and 106-Y (XZ700-M1-T12, XZ699-M1-T12) ([…], 10 mM in DMSO) were prepared about 240 each starting from aminooxy-containing 105 (XZ700) or 106 (XZ699) based on the following method. A mixture of aminooxy-containing 105 or 106 (10 μL, 30 mM in DMSO) with about 240 aldehydes M1-T12 (10 μL, 30 mM in DMSO) (Table 4) separately in the present of acetic acid (10 μL, 150 mM in DMSO) were agitated at room temperature overnight in three 96-well plates in parallel. The formed oximes 105-M1 to 105-T12 and 106-M1 to 106-T12 (30 uL, 10 mM in DMSO) were diluted to 100 μM in DMSO and evaluated by gel-based TDP1 fluorescence assay. The fluorescence of the gel band of DMSO blank vial was set as 0 and the fluorescence for the reference gel band without TDP1 was set as 100%. […] Among them, with same aldehyde structures D1 and P3, both oximes 105-series (105-D1, 105-P3) and 106-series (106-D1, 106-P3) show great (>90%) TDP1 inhibition. […] To confirm the inhibitions, we have further evaluated the purified lead oximes by HPLC. (Table 7; FIG. 9)

TDP1 [4] = target: T2, TDP1; test: TDP1 gel-based in vitro fluorescence assay; type: biochemical
TDP1 [5] = target: T2, TDP1; test: Degradation assay (western blotting) of TDP1 in HCT116 and HEK293 cells; type: cell-based; settings: for TDP1 degrading activity: list in description
Experimental: The degradation effect of the TDP1 inhibitors on TDP1 in human colon cancer cell line HCT116 and embryonic kidney cell line HEK293 were studied. Cells were first seeded in a 6-well plate until 60-80% confluency and then incubated with a serial dilution of TDP1 inhibitors at the range of 25-200 μM for 24-72 h at 37° C. […] Samples were then sonicated at 30% for 10 s and centrifuged for 15 min at 15000 rpm at 4 Celsius. Supernatant were collected and the concentration of total protein were measured by BCA Protein Assay Kit according to its protocols. Four micrograms of total protein for each sample were loaded and TDP1 level were conducted by western blotting.

TDP2 [6] = target: T1, TDP2; test: TDP2 degrading activity as stated in the description; settings: list in description
[7] = Table 8, lead compounds with different linkers, read-out: TDP2 IC50
[8] = purified oximes and SMM leads, read-out: TDP1 IC50
[9] = Table 7, ratio of IC50 TDP2 to TDP1
[10] = Table 8, lead compounds with different linkers, read-out: TDP1 IC50
[11] = Table 7, HPLC-purified oxime leads, read-out: TDP2 IC50
[12] = Table 8, ratio of IC50 TDP2 to TDP1

T1 sequence (O95551 whole entry, species assumed): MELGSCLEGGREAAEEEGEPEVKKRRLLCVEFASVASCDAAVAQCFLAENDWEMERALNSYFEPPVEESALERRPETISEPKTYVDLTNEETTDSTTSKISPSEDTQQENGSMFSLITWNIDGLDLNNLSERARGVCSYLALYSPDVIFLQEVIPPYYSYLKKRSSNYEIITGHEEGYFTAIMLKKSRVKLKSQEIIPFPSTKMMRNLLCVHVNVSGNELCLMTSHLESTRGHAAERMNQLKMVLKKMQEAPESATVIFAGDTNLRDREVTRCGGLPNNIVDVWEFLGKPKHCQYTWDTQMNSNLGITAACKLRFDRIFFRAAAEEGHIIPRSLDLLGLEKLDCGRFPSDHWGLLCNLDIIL
T2 sequence (Q9NUW8 whole entry): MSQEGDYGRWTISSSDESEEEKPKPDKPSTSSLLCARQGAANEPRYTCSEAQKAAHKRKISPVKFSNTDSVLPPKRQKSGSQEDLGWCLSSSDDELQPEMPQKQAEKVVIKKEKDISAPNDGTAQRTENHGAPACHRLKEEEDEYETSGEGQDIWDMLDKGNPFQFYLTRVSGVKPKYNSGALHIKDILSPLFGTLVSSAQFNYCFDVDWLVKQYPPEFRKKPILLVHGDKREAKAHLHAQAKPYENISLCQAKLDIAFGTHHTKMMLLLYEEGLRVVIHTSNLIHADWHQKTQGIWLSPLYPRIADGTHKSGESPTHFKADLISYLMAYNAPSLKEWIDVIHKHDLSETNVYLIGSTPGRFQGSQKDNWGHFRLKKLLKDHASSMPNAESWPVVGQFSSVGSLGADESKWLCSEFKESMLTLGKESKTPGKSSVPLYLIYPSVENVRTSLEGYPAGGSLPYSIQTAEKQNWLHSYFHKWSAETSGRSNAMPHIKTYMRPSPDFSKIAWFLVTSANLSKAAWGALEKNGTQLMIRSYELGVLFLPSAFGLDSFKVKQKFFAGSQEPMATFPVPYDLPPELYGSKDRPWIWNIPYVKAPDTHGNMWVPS

Compound: 4-((2-(4-(2-((4-(5-((λ^2-Azaneylidene)-λ^3-methyl)pyridin-2-yl)phenyl)methoxy)ethyl)phenyl)-7-phenylimidazo[1,2-a]pyridin-3-yl)amino)benzoic acid [XZ726]
- TOP1 degrading activity (TOP1): exhibit TOP1 degrading activity
- IC50 (TDP2 [1]; [7]): > 100 µM
- synergy with camptothecin [2]: exhibit synergy with camptothecin

Compound: N#Cc1ccc(-c2ccc(C=NOCc3ccc4nc(-c5ccccc5)c(Nc5ccc(C(=O)O)cc5)n4c3)cc2)nc1 [Compound 105-D1, 4-((6-((((4-(5-cyanopyridin-2-yl)benzylidene)amino)oxy)methyl)-2-phenylimidazo[1,2-a]pyridin-3-yl)amino)benzoic acid]
- inhibition at 100 µM (TDP1 [3]): > 90%

Compound: Cc1cncc(Oc2ccc(C=NOCc3ccc4nc(-c5ccccc5)c(Nc5ccc(C(=O)O)cc5)n4c3)cc2)n1 [Compound 105-P3, 4-((6-((((4-((6-methylpyrazin-2-yl)oxy)benzylidene)amino)oxy)methyl)-2-phenylimidazo[1,2-a]pyridin-3-yl)amino)benzoic acid]
- IC50 (TDP1 [4]; [8]): > 100 µM
- inhibition at 100 µM (TDP1 [3]): > 90%

Compound: O=C(O)c1ccc(Nc2c(-c3ccc(CON=Cc4ccc(N5CCCC5=O)cc4)cc3)nc3cc(-c4ccccc4)ccn23)cc1 [Compound 106-B7, 4-((2-(4-((((4-(2-oxopyrrolidin-1-yl)benzylidene)amino)oxy)methyl)phenyl)-7-phenylimidazo[1,2-a]pyridin-3-yl)amino)benzoic acid]
- TDP1 inhibition (TDP1 [3]): good inhibition

Compound: N#Cc1ccc(-c2ccc(C=NOCc3ccc(-c4nc5cc(-c6ccccc6)ccn5c4Nc4ccc(C(=O)O)cc4)cc3)cc2)nc1 [Compound 106-D1, 4-((2-(4-((((4-(5-cyanopyridin-2-yl)benzylidene)amino)oxy)methyl)phenyl)-7-phenylimidazo[1,2-a]pyridin-3-yl)amino)benzoic acid]
- inhibition at 100 µM (TDP1 [3]): > 90%

Compound: O=C(O)c1ccc(Nc2c(-c3ccc(CON=Cc4ccc(-c5cnccn5)cc4)cc3)nc3cc(-c4ccccc4)ccn23)cc1 [Compound 106-E6, 4-((7-phenyl-2-(4-((((4-(pyrazin-2-yl)benzylidene)amino)oxy)methyl)phenyl)imidazo[1,2-a]pyridin-3-yl)amino)benzoic acid]
- TDP1 inhibition (TDP1 [3]): good inhibition

Compound: O=C(O)c1ccc(Nc2c(-c3ccc(CON=Cc4ccc(-c5ccccc5)cc4)cc3)nc3cc(-c4ccccc4)ccn23)cc1 [Compound 106-M10, 4-((2-(4-(((([1,1′-biphenyl]-4-ylmethylene)amino)oxy)methyl)phenyl)-7-phenylimidazo[1,2-a]pyridin-3-yl)amino)benzoic acid]
- TDP1 inhibition (TDP1 [3]): poor inhibition

Compound: Cc1cncc(Oc2ccc(C=NOCc3ccc(-c4nc5cc(-c6ccccc6)ccn5c4Nc4ccc(C(=O)O)cc4)cc3)cc2)n1 [Compound 106-P3, 4-((2-(4-((((4-((6-methylpyrazin-2-yl)oxy)benzylidene)amino)oxy)methyl)phenyl)-7-phenylimidazo[1,2-a]pyridin-3-yl)amino)benzoic acid]
- inhibition at 100 µM (TDP1 [3]): > 90%

Compound: N#Cc1ccc(-c2ccc(/C=N/OCc3ccc(-c4nc5cc(-c6ccccc6)ccn5c4Nc4ccc(C(=O)O)cc4)cc3)cc2)nc1 [XZ701, (E)-4-((2-(4-((((4-(5-Cyanopyridin-2-yl)benzylidene)amino)oxy)methyl)phenyl)-7-phenylimidazo[1,2-a]pyridin-3-yl)amino)benzoic acid]
- TOP1 degrading activity (TOP1): exhibit TOP1 degrading activity
- TDP2 degrading activity (TDP2 [6]): exhibit TDP2 degrading activity
- TDP1 degrading activity (TDP1 [5]): exhibit TDP1 degrading activity
- selectivity against TDP1 than against TDP2 (TDP1 [4]): 74 fold
- FC (fold change) (TDP1 [4]; [9]): 74
- IC50 (TDP1 [4]; [10]): 0.38 ± 0.06 µM
- TDP1 inhibition relative to SMM lead 3 (TDP1 [4]; fold more than SMM lead 3): 10 fold
- IC50 (TDP1 [4]; [8]): 0.38 ± 0.06 µM
- IC50 (TDP2 [1]; [11]): 28.1 ± 8.9 µM
- synergy with camptothecin [2]: exhibit synergy with camptothecin

Compound: O=C(O)c1ccc(Nc2c(-c3ccc(CO/N=C/c4ccc(-c5cnccn5)cc4)cc3)nc3cc(-c4ccccc4)ccn23)cc1 [XZ702, (E)-4-((7-Phenyl-2-(4-((((4-(pyrazin-2-yl)benzylidene)amino)oxy)methyl)phenyl)imidazo[1,2-a]pyridin-3-yl)amino)benzoic acid]
- TDP2 degrading activity (TDP2 [6]): exhibit TDP2 degrading activity
- FC (fold change) (TDP1 [4]; [9]): 3
- IC50 (TDP1 [4]; [8]): 3.1 ± 0.5 µM
- IC50 (TDP2 [1]; [11]): 8.8 ± 2.9 µM
- IC50 (TDP2 [1]; purified oximes, read-out: TDP2 IC50): 8.8 ± 2.9 µM
- synergy with camptothecin [2]: exhibit synergy with camptothecin

Compound: N#Cc1ccc(-c2ccc(Cn3cc(-c4ccc(-c5nc6ccccn6c5Nc5ccc(C(=O)O)cc5)cc4)nn3)cc2)nc1 [XZ719, 4-((2-(4-(1-(4-(5-Cyanopyridin-2-yl)benzyl)-1H-1,2,3-triazol-4-yl)phenyl)imidazo[1,2-a]pyridin-3-yl)amino)benzoic acid]
- TDP2 degrading activity (TDP2 [6]): exhibit TDP2 degrading activity
- IC50 (TDP1 [4]; [10]): 21.6 ± 5 µM
- FC (fold change) (TDP1 [4]; [12]): 3
- IC50 (TDP2 [1]; [7]): 62.4 ± 18.6 µM
- synergy with camptothecin [2]: exhibit synergy with camptothecin

Compound: O=C(O)c1ccc(Nc2c(-c3ccccc3OS(=O)(=O)F)nc3cc(-c4ccccc4)ccn23)cc1 [XZ730, 4-((2-(2-((Fluorosulfonyl)oxy)phenyl)-7-phenylimidazo[1,2-a]pyridin-3-yl)amino)benzoic acid]
- TDP2 degrading activity (TDP2 [6]): exhibit TDP2 degrading activity
- TDP1 degradation by covalent inhibitors (TDP1 [5]; FIG. 39): degrade TDP1
- TDP1 degrading activity (TDP1 [5]): exhibit TDP1 degrading activity
- IC50 (TDP1 [4]): 17.8 µM
- inhibition of TDP1, primary screen (TDP1 [4]; 111 μM, preincubation with TDP1 at room temperature overnight): inhibition
- selectivity compared with TDP2, secondary screen (TDP1 [4]; preincubation overnight at room temperature): 2 fold
- inhibition, secondary screen (TDP1 [4]; preincubation with TDP overnight at room temperature): μM inhibition
- IC50 (TDP2 [1]): 39.5 µM
- inhibition of TDP2, primary screen (TDP2 [1]; 111 μM, preincubation with TDP2 at room temperature overnight): inhibition

The next lines start with the values.

- TOP1 degrading activity (TOP1): exhibit TOP1 degrading activity
- TDP1 degrading activity (TDP1 [5]): exhibit TDP1 degrading activity
- IC50 (TDP2 [1]; Table 10, PROTACs, read-out: TDP2 IC50): > 100 µM
Compound: Cc1ncsc1-c1ccc(CNC(=O)[C@@H]2C[C@@H](O)CN2C(=O)[C@@H](NC(=O)COCCOCCn2cc(COc3ccc(-c4nc5cc(-c6ccccc6)ccn5c4Nc4ccc(C(=O)O)cc4)cc3)nn2)C(C)(C)C)cc1 [XZ679, 4-((2-(4-((1-(2-(2-(2-(((S)-1-((2S,4R)-4-Hydroxy-2-((4-(4-methylthiazol-5-yl)benzyl)carbamoyl)pyrrolidin-1-yl)-3,3-dimethyl-1-oxobutan-2-yl)amino)-2-oxoethoxy)ethoxy)ethyl)-1H-1,2,3-triazol-4-yl)methoxy)phenyl)-7-phenylimidazo[1,2-a]pyridin-3-yl)amino)benzoic acid]

- TOP1 degrading activity (TOP1): exhibit TOP1 degrading activity
- TDP2 degrading activity (TDP2 [6]): exhibit TDP2 degrading activity
- TDP1 degrading activity (TDP1 [5]): exhibit TDP1 degrading activity
- IC50 (TDP1 [4]; [10]): 5.95 ± 1.25 µM
- FC (fold change) (TDP1 [4]; [12]): 3
- IC50 (TDP2 [1]; [7]): 18 ± 1.2 µM
Compound: N#Cc1ccc(-c2ccc(Cn3cc(-c4ccn5c(Nc6ccc(C(=O)O)cc6)c(-c6ccccc6)nc5c4)nn3)cc2)nc1 [XZ722, 4-((7-(1-(4-(5-Cyanopyridin-2-yl)benzyl)-1H-1,2,3-triazol-4-yl)-2-phenylimidazo[1,2-a]pyridin-3-yl)amino)benzoic acid]
